Experimental data published in patent publication US11191854B2, “Pharmacokinetic enhancements of bifunctional chelates and uses thereof” (Centre for Probe Development and Commercialization, priority 2017, dated 2021).

Experiment: Metabolic excretion study (urine and feces collection in metabolic cages) of 177Lu-labelled human IgG conjugates
Assay type: in vivo, mice (normal CD-1 or athymic CD-1 nude)
Conditions: mice, intravenous, 7 day period; tested as [177Lu]-HuMIgG conjugates
Method: Groups of 4 or 5 mice (normal CD-1 or athymic CD-1 nude) were injected intravenously with approximately 15 microcuries of radiolabelled test compound. Test compounds with various linkers were synthesized and radiolabelled with lutetium-177. For pharmacokinetic studies, animals were sacrificed at specific time points, and blood and tumor (when applicable) were analyzed for total radioactivity. For metabolism studies, animals were placed in metabolic cages (4-5 per cage) for urine and feces collection every 24 hours for up to 7 days. The radioactive content of urine and feces samples was quantified and converted to total urine or feces output based on weight. Excretion profiles for urine, feces, or total excretion (urine+feces) were generated by plotting cumulative % injected dose (%ID) over time.
The human IgG preparation used consisted of a purified mixture of all IgG isotypes (IgG1-4).

Row | SMILES | total excretion of radioactivity compared to Compound A-HuMIgG
1 | O=C(O)CN1CCN(CC(=O)O)CCN(C(CCC(=O)NCCCCCCCCCCC(=O)Oc2c(F)c(F)cc(F)c2F)C(=O)O)CCN(CC(=O)O)CC1 (centres unmarked) [Compound B, 4-{[11-oxo-11-(2,3,5,6-tetrafluorophenoxy)undecyl]carbamoyl}-2-[4,7,10-tris(carboxymethyl)-1,4,7,10-tetraazacyclododecan-1-yl]butanoic acid] | increased the amount total excretion of radioactivity
2 | O=C(O)CN1CCN(CC(=O)O)CCN(C(CCC(=O)NCCOCCOCCOCCC(=O)Oc2c(F)c(F)cc(F)c2F)C(=O)O)CCN(CC(=O)O)CC1 (centres unmarked) [Compound C, 4-{[2-(2-{2-[3-oxo-3-(2,3,5,6-tetrafluorophenoxy)propoxy]ethoxy}ethoxy)ethyl]carbamoyl}-2-[4,7,10-tris(carboxymethyl)-1,4,7,10-tetraazacyclododecan-1-yl]butanoic acid] | increased the amount total excretion of radioactivity
